Common to all, as to assay: relative viability (nuclei count vs DMSO), 5 days (fraction); higher = more cells survive
Compound in experiment [1]: CC1=NC=CC(=C1)C2=CC=C(C=C2)CC(=O)NC3=CC=C(C=C3)C4=CN=CC=C4 [Wnt-C59] + CS(=O)(=O)N1CCN(Cc2cc3nc(-c4cccc5[nH]ncc45)nc(N4CCOCC4)c3s2)CC1 [Pictilisib] (partner 1 µM)
The method, boiled down: (§1)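 Relative viability divides the nuclei count in treated wells by that in vehicle wells. Lung cancer cell lines were seeded in 1536-well plates, dosed by pin tool the next day, and fixed and stained after 5 days in one step with final 0.05% Triton X-100, 1% formaldehyde and 1 ug/ml Hoechst. Dosing was a single drug or a fixed anchor-drug dose plus five library-drug doses (not always all listed) in √10 steps, and values are medians of duplicate plates imaged at 4×.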

Compound in experiment [2]: CS(=O)(=O)CCNCc1ccc(-c2ccc3ncnc(Nc4ccc(OCc5cccc(F)c5)c(Cl)c4)c3c2)o1 [Lapatinib] + Cc1nc(Nc2ncc(C(=O)Nc3c(C)cccc3Cl)s2)cc(N2CCN(CCO)CC2)n1 [Dasatinib] (partner 0.075 µM)
Put shortly: as §1

Compound in experiment [3]: CS(=O)(=O)CCNCc1ccc(-c2ccc3ncnc(Nc4ccc(OCc5cccc(F)c5)c(Cl)c4)c3c2)o1 [Lapatinib] + CCNC(=O)c1noc(-c2cc(C(C)C)c(O)cc2O)c1-c1ccc(CN2CCOCC2)cc1 [Luminespib] (partner 0.01 µM)
Put shortly: as §1

Compound in experiment [4]: CS(=O)(=O)CCNCc1ccc(-c2ccc3ncnc(Nc4ccc(OCc5cccc(F)c5)c(Cl)c4)c3c2)o1 [Lapatinib] + N=C(N)NC(=N)NCCc1ccccc1 [Phenformin] (partner 250 µM)
The method, boiled down: as §1

Consider UMC-11, for which the relative viability in experiment [1] (first compound 0.001 µM) is 0.81; in experiment [1] (first compound 0.01 µM), 0.843; in experiment [1] (first compound 0.03162 µM), 0.844; in experiment [1] (first compound 0.1 µM), 0.756; in experiment [2] (first compound 0.02 µM), 0.45; in experiment [2] (first compound 0.06325 µM), 0.404. In addition, the relative viability in experiment [2] (first compound 0.2 µM) was 0.52; in experiment [2] (first compound 0.6325 µM), 0.453; in experiment [2] (first compound 2 µM), 0.421; in experiment [3] (first compound 0.02 µM), 0.887; in experiment [3] (first compound 0.06325 µM), 0.957; in experiment [3] (first compound 0.2 µM), 0.976. For the same cell line, the relative viability in experiment [3] (first compound 0.6325 µM) stood at 0.901; in experiment [3] (first compound 2 µM), 1.02; in experiment [4] (first compound 0.02 µM) it was 0.351; in experiment [4] (first compound 0.06325 µM) it was 0.306; in experiment [4] (first compound 0.2 µM) it was 0.297; in experiment [4] (first compound 0.6325 µM) it was 0.321. Besides, in experiment [4] (first compound 2 µM), the relative viability came to 0.298.

Values taken from the supplement of paper PMC10307832.
